Source: patent US8748491B2, “Dietary and pharmaceutical compositions containing tricyclic diterpenes and their derivatives and their uses” (priority 2006, dated 2014)
Marks after values point to notes of the source that are not given here.

Experiments:
[1] = molecular target: T1, human serotonin re-uptake transporter (hSERT) (Homo sapiens, UniProt P31645); assay: Inhibition of tritiated serotonin uptake into transfected HEK-293 cells; format: cell-based; conditions: HEK-293 cells expressing hSERT; 20 nM [3H] serotonin, 40 min, 37° C.; mean ± s.e.m.
T1 construct: host or cells: HEK-293
From the text: HEK-293 cells stably expressing the human serotonin re-uptake transporter (hSERT) were obtained from R. Blakely, Vanderbilt University, USA. The cells were routinely grown in Dulbecco's Modified Eagle's Medium (Bioconcept) containing 10% fetal calf serum, penicillin, streptomycin, L-glutamine and the antibiotic G418 and passaged by trypsinisation. On the day of assay, cells from 80% confluent flasks were harvested by gentle washing with warm phosphate buffered saline (PBS). […] Serotonin uptake into the cells was determined by addition of radio-labelled [^3H] serotonin (GE Healthcare) at a concentration of 20 nM, and incubation for 40 minutes at 37° C. with gentle shaking. At the end of this time unincorporated label was removed by filtration though Unifilter 96 GF/B plates (Perkin Elmer) using a Tomtec Mach III M cell harvester. The incorporated serotonin retained on the plates was quantified by liquid scintillation counting using Microscint-40/Topcount (Perkin Elmer).

[2] = molecular target: T2, Monoamine oxidase A (MAO-A) (Homo sapiens, UniProt P21397); assay: Monoamine oxidase A inhibition (p-tyramine substrate, H2O2/vanillic acid/HRP readout); format: biochemical; conditions: p-tyramine 0.5 mM; mean ± s.e.m.; read-out: IC50 [μM] for Inhibition of MAO-A
T2 sequence (P21397 1-527): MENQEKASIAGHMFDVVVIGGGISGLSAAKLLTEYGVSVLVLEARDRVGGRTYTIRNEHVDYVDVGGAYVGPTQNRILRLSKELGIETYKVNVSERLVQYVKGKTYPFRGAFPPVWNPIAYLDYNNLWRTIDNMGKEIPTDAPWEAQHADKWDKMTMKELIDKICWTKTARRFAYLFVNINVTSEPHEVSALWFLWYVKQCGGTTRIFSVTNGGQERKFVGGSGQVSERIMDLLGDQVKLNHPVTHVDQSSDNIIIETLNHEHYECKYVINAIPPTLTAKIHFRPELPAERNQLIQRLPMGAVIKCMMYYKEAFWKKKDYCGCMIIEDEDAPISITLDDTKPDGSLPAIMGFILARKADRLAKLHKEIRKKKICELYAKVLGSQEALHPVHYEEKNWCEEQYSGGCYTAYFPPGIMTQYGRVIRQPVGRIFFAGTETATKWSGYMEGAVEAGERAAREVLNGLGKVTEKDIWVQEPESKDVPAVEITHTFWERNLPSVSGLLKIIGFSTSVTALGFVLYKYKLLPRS
Experimental: (§1) The organic amines p-tyramine or benzylamine were used as substrates for the Monoamine oxidase A (MAO-A) and B (MAO-B) enzymes respectively. The H2O2 produced by this reaction was quantified by reaction with vanillic acid, catalysed by horse radish peroxidase (HRP).
(§2) The reactions were carried out in polystyrene microtitre plates. The MAO enzymes (final concentration 2 U/ml) were mixed with either p-tyramine (Sigma, final concentration 0.5 mM) or benzylamine (Sigma, final concentration 0.5 mM) as appropriate and the chromogenic solution (containing vanillic acid (Fluka), 4-aminoantipyrine (Fluka) and horse radish peroxidase (Sigma), final concentrations 0.25 mM, 0.125 mM and 1 U/ml respectively) in 0.2 M potassium phosphate buffer, pH 7.6. The reactions were followed in a microtitre plate absorbance reader e.g. Spectramax M5 (Molecular Devices Corporation). Absorbance readings at 495 nm were taken every 15 seconds for 40 minutes and the initial reaction velocities calculated by linear regression using SOFTmaxPro (Molecular Devices Corporation).
(§3) The effect of tricyclic diterpenes and their derivatives according to formula I on the monoamine oxidase enzymes was determined by their inclusion in the assay at a range of concentrations between 0.03 and 100 μM for 10 minutes prior to and during the incubation with substrate. To determine the effect of the compounds on the HRP catalyzed portion of the reaction, the MAO enzyme was replaced by H2O2 (Molecular Probes, final concentration 0.2 mM). The reactions containing MAO-A and MAO-B were both inhibited by tricyclic diterpenes and their derivatives according to formula I in a dose-dependent manner, whilst the control reaction, was unaffected. The measured IC50 values for inhibition of monoamine oxidase activity by carnosic acid, carnosic acid-12-methyl ether and 20-deoxo-carnosol are shown in Table 3.

[3] = molecular target: T3, Monoamine oxidase B (MAO-B) (Homo sapiens, UniProt P27338); assay: Monoamine oxidase B inhibition (benzylamine substrate, H2O2/vanillic acid/HRP readout); format: biochemical; conditions: benzylamine 0.5 mM; mean ± s.e.m.; read-out: IC50 [μM] for Inhibition of MAO-B
T3 sequence (P27338 1-520): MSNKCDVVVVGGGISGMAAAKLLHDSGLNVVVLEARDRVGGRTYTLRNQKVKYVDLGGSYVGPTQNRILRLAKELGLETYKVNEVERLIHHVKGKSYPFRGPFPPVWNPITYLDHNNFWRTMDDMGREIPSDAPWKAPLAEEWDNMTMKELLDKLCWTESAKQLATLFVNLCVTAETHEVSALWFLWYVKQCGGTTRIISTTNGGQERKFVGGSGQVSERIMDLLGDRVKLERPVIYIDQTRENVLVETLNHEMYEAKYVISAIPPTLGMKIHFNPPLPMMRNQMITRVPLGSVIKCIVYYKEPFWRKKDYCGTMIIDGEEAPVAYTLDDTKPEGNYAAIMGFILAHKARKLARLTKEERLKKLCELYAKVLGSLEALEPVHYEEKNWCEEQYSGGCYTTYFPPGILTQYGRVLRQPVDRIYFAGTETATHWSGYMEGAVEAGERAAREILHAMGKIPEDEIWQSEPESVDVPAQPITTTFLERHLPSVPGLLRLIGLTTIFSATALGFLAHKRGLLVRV
Experimental: as §1, §2, §3

mouse [4] = assay: Marble burying test; format: in vivo; conditions: for NUMBER OF MARBLES COVERED BY SAWDUST % change from control / NUMBER OF MARBLES COVERED BY SAWDUST mean ± s.e.m.: mouse
Experimental: The method applied here follows that described by Broekkamp et al., supra. Mice (n=15 per treatment group) were individually placed in transparent plastic cages (33×21×18 cm) with 5 cm of sawdust on the floor and 25 marbles (diameter 1 cm) grouped in the centre of the cage. A second, up-turned, cage served as a lid. The number of marbles covered by sawdust (by at least two-thirds) was counted at the end of the 30-minute test period. Tests were performed by investigators blind to the drug treatment protocol.
Prior to testing, all test cages and marbles were “impregnated” by leaving 10 naive mice in each cage for 15 minutes. […]
Data were analysed by comparing treated groups with vehicle control using unpaired Student's t-tests.

mouse [5] = assay: Light dark box test; format: in vivo; conditions: mouse, 32 mg/kg p.o. −1 h
From the text: The method, which detects anxiolytic activity, follows that described by Crawley, 1981 Pharmacol. Biochem. Behav., 15:695-699. Anxiolytics increase the time spent in the light compartment.
Animals were placed into the light compartment of a 2-compartment box with one half light and open (25×27×27 cm) and the other half dark and closed (20×27×27 cm). The time spent in each compartment as well as the number of times the animal crosses from one side to the other is scored during a 3-minute test. 15 mice were studied per group. The test was performed blind.
Carnosic acid was evaluated at 3 doses (100, 200, 400 mg/kg BW), administered by oral gavage (p.o.) 24, 5 and 1 hour before the test, and compared with a vehicle control group (corn oil). Carnosic acid was dissolved in corn oil (“vehicle”). Clobazam (32 mg/kg p.o.), administered 1 hour before the test, was used as reference substance. Mice in this group received additional administrations of vehicle at 24 and 5 hours before the test in order to maintain experimental blinding.

mouse [6] = assay: Porsolt's forced swim test (FST); format: in vivo
Experimental: Mice were individually placed in cylinders (24.5 cm height, 19.5 cm internal diameter) containing 13.5 cm depth of water (22±0.5° C.) for a period of 6 minutes, behavioural parameters of interest being analysed during the final 4 minutes of the test, since the first 2 minutes include vigorous activity. Six cylinders were placed in a Perspex box, thus enabling six mice to be tested simultaneously.
Automatic monitoring of swim tests was enabled through the use of VideoMot2 software (TSE Technical and Scientific Equipment GmbH, Bad Homburg, Germany). All to experiments were observed via a black and white CCD camera. The rest:locomotion and stop:start thresholds, as determined by setting parameters in the software programme, determine the number of pixels which must change for a movement to be registered, enabling the software to determine whether a mouse is swimming or resting. The parameters which are automatically recorded include: rest time and locomotion time (ms), % rest and % locomotion, distance travelled (cm), speed of travel (cm/s) and number of stops.
Data were analysed by comparing treated groups with the untreated control group using Fisher's PLSD (StatView, SAS Institute Inc., Cary, N.C., USA)

[7] = Table 6, 100 mg/kg i.p. −30 min
[8] = Table 6, 200 mg/kg i.p. −30 min

T1 sequence (P31645 whole entry): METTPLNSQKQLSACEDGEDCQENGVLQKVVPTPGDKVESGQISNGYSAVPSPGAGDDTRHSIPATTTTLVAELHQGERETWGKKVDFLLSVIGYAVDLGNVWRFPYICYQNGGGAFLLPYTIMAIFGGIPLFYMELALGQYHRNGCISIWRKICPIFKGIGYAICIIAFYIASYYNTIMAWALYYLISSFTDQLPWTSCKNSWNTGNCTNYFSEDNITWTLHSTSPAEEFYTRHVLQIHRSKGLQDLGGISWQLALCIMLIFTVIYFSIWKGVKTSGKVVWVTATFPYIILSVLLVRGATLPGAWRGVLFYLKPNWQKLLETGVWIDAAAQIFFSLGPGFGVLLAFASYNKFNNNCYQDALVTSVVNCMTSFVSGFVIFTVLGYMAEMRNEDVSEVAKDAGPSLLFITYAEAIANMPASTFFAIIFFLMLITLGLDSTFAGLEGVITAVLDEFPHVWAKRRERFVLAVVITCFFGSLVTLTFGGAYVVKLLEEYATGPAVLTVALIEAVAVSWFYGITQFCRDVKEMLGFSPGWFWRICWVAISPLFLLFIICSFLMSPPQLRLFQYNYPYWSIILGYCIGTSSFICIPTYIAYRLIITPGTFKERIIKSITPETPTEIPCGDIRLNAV

16-hydroxytotarol was tested, and the IC50 [1] was 7.4 µM.

Molecule `CC(C)c1ccc2c(c1)C(=O)C[C@H]1[C@](C)(C(=O)O)CCC[C@]21C` [7-Oxocallitrisic Acid, 7-oxocallitrisic acid] has an IC50 [1] of 32.9 ± 8.6 µM.

With `CC(C)c1cc2c(c(O)c1O)[C@@]13CCCC(C)(C)[C@@H]1C[C@@H]2OC3` [20-Deoxo-carnosol, 20-deoxo-carnosol] the IC50 [1] was 4.2 ± 0.2 µM, the IC50 [2] was 4.3 ± 1.1 µM and the IC50 [3] was 27 ± 7.3 µM. The “NUMBER OF MARBLES COVERED BY SAWDUST % change from control” value (mouse [4]; Table 6, 30 mg/kg i.p. −30 min) was −24%, the “NUMBER OF MARBLES COVERED BY SAWDUST mean ± s.e.m.” value (mouse [4]; Table 6, 30 mg/kg i.p. −30 min) was 16.7 ± 2.2 and the “NUMBER OF MARBLES COVERED BY SAWDUST % change from control” value (mouse [4]; [7]) was −56%. The “NUMBER OF MARBLES COVERED BY SAWDUST mean ± s.e.m.” value (mouse [4]; [7]) was 9.7 ± 2.3, the “NUMBER OF MARBLES COVERED BY SAWDUST % change from control” value (mouse [4]; [8]) was −60% and the “NUMBER OF MARBLES COVERED BY SAWDUST mean ± s.e.m.” value (mouse [4]; [8]) was 8.8 ± 2.4. For the same molecule, the “marble burying behaviour (in words)” value (mouse [4]; mouse, 30, 100 and 200 mg/kg i.p.) was “dose-dependently and significantly reduced marble burying behaviour”.

With `COc1c(C(C)C)cc2c(c1O)C1(C(=O)O)CCCC(C)(C)C1CC2` (stereo not drawn) [Carnosic acid-12-methylether, carnosic acid 12-methyl ether] the IC50 [1] was 22 ± 4.9 µM, the IC50 [2] was 40.6 ± 0.25 µM and the IC50 [3] was 83.1 ± 6.8 µM.

`CN1C(=O)CC(=O)N(c2ccccc2)c2cc(Cl)ccc21` [Clobazam, clobazam, reference compound] was tested, and the “NUMBER OF CROSSINGS % change from control” value (mouse [5]) was “+56%” and the “TIME SPENT IN THE LIGHT COMPARTMENT % change from control” value (mouse [5]) was “+43%”.

`CNCCC(Oc1ccc(C(F)(F)F)cc1)c1ccccc1` (stereo not drawn) [Fluoxetine, fluoxetine, reference compound] was tested, and the “NUMBER OF MARBLES COVERED BY SAWDUST % change from control” value (mouse [4]; Table 5, 32 mg/kg i.p. −30 min) was −100%, the “NUMBER OF MARBLES COVERED BY SAWDUST mean ± s.e.m.” value (mouse [4]; Table 5, 32 mg/kg i.p. −30 min) was 0.0 ± 0.0 and the “NUMBER OF MARBLES COVERED BY SAWDUST % change from control” value (mouse [4]; Table 6, 32 mg/kg i.p. −30 min) was −100%. For the same molecule, the “NUMBER OF MARBLES COVERED BY SAWDUST mean ± s.e.m.” value (mouse [4]; Table 6, 32 mg/kg i.p. −30 min) was 0.0***.

Molecule `CC(C)c1c(O)ccc2c1CC[C@H]1C(C)(C)CCC[C@]21C` [Totarol, totarol] has an IC50 [1] of 7.5 ± 2.6 µM.

For `COC(=O)C1(C)CCCC2(C)c3ccc(O)c(C(C)C)c3CCC12` (stereo not drawn) [Totarol-19-carboxylic acid methyl ester, totarol-19-carboxylic acid methyl ester], the IC50 [1] was 7.2 µM.

In the case of `COc1ccc(C(CN(C)C)C2(O)CCCCC2)cc1` (stereo not drawn) [VENLAFAXINE, venlafaxine, reference compound], the “NUMBER OF MARBLES COVERED BY SAWDUST % change from control” value (mouse [4]; Table 6, 16 mg/kg i.p. −30 min) is reported as −60% and the “NUMBER OF MARBLES COVERED BY SAWDUST mean ± s.e.m.” value (mouse [4]; Table 6, 16 mg/kg i.p. −30 min) is reported as 8.7 ± 2.2.

`CN(C)CCCN1c2ccccc2CCc2ccccc21` [imipramine, reference compound] was tested, and the “Duration of immobility (% change from control)” value (mouse [6]; 32 mg/kg i.p., −30 min) was −61% and the “Duration of immobility (% change from control)” value (mouse [6]; 32 mg/kg p.o., −24, −5, −1 h) was −56%.
